Test results from the NIST ThermoML archive (doi:10.1016/j.fluid.2010.10.018).

Conditions: 101.33 kPa, Liquid

CCn1cc[n+](C)c1.O=S(=O)([N-]S(=O)(=O)C(F)(F)F)C(F)(F)F
viscosity [mPa·s]
Conditions | Concentric cylinders viscometry | Falling or rolling sphere viscometry
278 K | 76.05 | –
283 K | 60.15 | 59.8
288 K | 48.47 | –
293 K | 39.71 | 39.54
298 K | 33 | –
303 K | 27.78 | –
308 K | 23.66 | –
313 K | 20.37 | 20.49
318 K | 17.69 | –
323 K | 15.5 | –
328 K | 13.68 | –
333 K | 12.16 | 12.42
338 K | 10.87 | –
343 K | 9.784 | –
348 K | 8.848 | –
353 K | 8.041 | 8.036
358 K | 7.34 | –

CCCn1cc[n+](C)c1.O=S(=O)([N-]S(=O)(=O)C(F)(F)F)C(F)(F)F
viscosity [mPa·s]
Conditions | Concentric cylinders viscometry | Falling or rolling sphere viscometry
278 K | 122.17 | –
283 K | 92.6 | –
288 K | 71.78 | –
293 K | 56.78 | 56.4
298 K | 45.75 | –
303 K | 37.43 | –
308 K | 31.07 | –
313 K | 26.13 | 26.17
318 K | 22.23 | –
323 K | 19.11 | –
328 K | 16.58 | –
333 K | 14.5 | 14.82
338 K | 12.79 | –
343 K | 11.35 | –
348 K | 10.14 | –
353 K | 9.118 | 9.251
358 K | 8.24 | –
373 K | – | 6.32

CCCCCCCCn1cc[n+](C)c1.O=S(=O)([N-]S(=O)(=O)C(F)(F)F)C(F)(F)F
Concentric cylinders viscometry
Conditions | viscosity [mPa·s]
278 K | 297.03
283 K | 214.79
288 K | 159.11
293 K | 120.46
298 K | 93.05
303 K | 73.2
308 K | 58.53
313 K | 47.5
318 K | 39.09
323 K | 32.56
328 K | 27.43
333 K | 23.35
338 K | 20.06
343 K | 17.38
348 K | 15.18
353 K | 13.35
358 K | 11.83

CCCCCCCCC[n+]1ccn(C)c1.O=S(=O)([N-]S(=O)(=O)C(F)(F)F)C(F)(F)F
Capillary tube (Ostwald / Ubbelohde) method
Conditions | viscosity [mPa·s]
278 K | 348.2
283 K | 249.7
288 K | 183.88
293 K | 138.55
298 K | 106.41
303 K | 83.35
308 K | 66.2
313 K | 53.43
318 K | 43.76
323 K | 36.28
328 K | 30.43
333 K | 25.77
338 K | 22.12
343 K | 19.09
348 K | 16.61
353 K | 14.53
358 K | 12.82
363 K | 11.4

CCCCCCCCCCCCn1cc[n+](C)c1.O=S(=O)([N-]S(=O)(=O)C(F)(F)F)C(F)(F)F
Concentric cylinders viscometry
Conditions | viscosity [mPa·s]
283 K | 384.51
288 K | 277.46
293 K | 205
298 K | 154.33
303 K | 118.68
308 K | 93.71
313 K | 74.49
318 K | 60.08
323 K | 49.11
328 K | 40.64
333 K | 34.01
338 K | 28.76
343 K | 24.55
348 K | 21.14
353 K | 18.35
358 K | 16.05
363 K | 14.12

CCCCCC[n+]1ccn(C)c1.O=S(=O)([N-]S(=O)(=O)C(F)(F)F)C(F)(F)F
viscosity [mPa·s]
Conditions | Concentric cylinders viscometry | Falling or rolling sphere viscometry
278 K | 212.3 | –
283 K | 155.94 | –
288 K | 117.29 | –
293 K | 90.13 | 87.84
298 K | 70.61 | –
303 K | 56.3 | –
308 K | 45.61 | –
313 K | 37.47 | 37.08
318 K | 31.19 | –
323 K | 26.25 | –
328 K | 22.35 | –
333 K | 19.2 | 19.29
338 K | 16.65 | –
343 K | 14.55 | –
348 K | 12.81 | –
353 K | 11.35 | 11.48
358 K | 10.13 | –
373 K | – | 7.46
393 K | – | 5.28

CCCCCCCCCCn1cc[n+](C)c1.O=S(=O)([N-]S(=O)(=O)C(F)(F)F)C(F)(F)F
viscosity [mPa·s]
Conditions | Concentric cylinders viscometry | Falling or rolling sphere viscometry
278 K | 403.2 | –
283 K | 287.62 | 292.44
288 K | 210.53 | –
293 K | 157.52 | 159.41
298 K | 120.18 | –
303 K | 93.45 | –
308 K | 73.92 | –
313 K | 59.37 | 60.51
318 K | 48.36 | –
323 K | 39.91 | –
328 K | 33.32 | –
333 K | 28.12 | 29.3
338 K | 23.97 | –
343 K | 20.62 | –
348 K | 17.88 | –
353 K | 15.63 | 16.14
358 K | 13.75 | –
373 K | – | 10
393 K | – | 6.8

CCCCCCCCCCCCCCn1cc[n+](C)c1.O=S(=O)([N-]S(=O)(=O)C(F)(F)F)C(F)(F)F
Concentric cylinders viscometry
Conditions | viscosity [mPa·s]
313 K | 98.04
318 K | 78.06
323 K | 63.09
328 K | 51.68
333 K | 42.83
338 K | 35.87
343 K | 30.36
348 K | 25.93
353 K | 22.33
358 K | 19.38
363 K | 16.95

CCCCCn1cc[n+](C)c1.O=S(=O)([N-]S(=O)(=O)C(F)(F)F)C(F)(F)F
viscosity [mPa·s]
Conditions | Concentric cylinders viscometry | Falling or rolling sphere viscometry
278 K | 164.73 | –
283 K | 123.09 | 133.33
288 K | 93.65 | –
293 K | 72.76 | 78.44
298 K | 57.81 | –
303 K | 46.38 | –
308 K | 37.92 | –
313 K | 31.43 | 33.94
318 K | 26.38 | –
323 K | 22.4 | –
328 K | 19.2 | –
333 K | 16.6 | 18.52
338 K | 14.48 | –
343 K | 12.73 | –
348 K | 11.27 | –
353 K | 10.04 | 10.89
358 K | 8.996 | –
373 K | – | 7.19
393 K | – | 5.15

CCCCCCCn1cc[n+](C)c1.O=S(=O)([N-]S(=O)(=O)C(F)(F)F)C(F)(F)F
Concentric cylinders viscometry
Conditions | viscosity [mPa·s]
278 K | 235
283 K | 182.82
288 K | 136.42
293 K | 104.17
298 K | 81.11
303 K | 64.28
308 K | 51.75
313 K | 42.28
318 K | 34.99
323 K | 29.3
328 K | 24.81
333 K | 21.2
338 K | 18.3
343 K | 15.92
348 K | 13.95
353 K | 12.31
358 K | 10.93
363 K | 9.753

CCCC[n+]1ccn(C)c1.O=S(=O)([N-]S(=O)(=O)C(F)(F)F)C(F)(F)F
viscosity [mPa·s]
Conditions | Concentric cylinders viscometry | Falling or rolling sphere viscometry
278 K | 137.62 | –
283 K | 104.14 | –
288 K | 80.16 | –
293 K | 62.99 | 63.05
298 K | 50.62 | –
303 K | 41.12 | –
308 K | 33.89 | –
313 K | 28.28 | 28.63
318 K | 23.92 | –
323 K | 20.45 | –
328 K | 17.66 | –
333 K | 15.38 | 16
338 K | 13.5 | –
343 K | 11.93 | –
348 K | 10.61 | –
353 K | 9.501 | 9.911
358 K | 8.553 | –
373 K | – | 6.548
393 K | – | 4.785
